Assay results reported in the NIST ThermoML archive (doi:10.1021/je060271a).
“And” between values parts separate entries of the source, which are not always exact repeats. Equal entries are not always repeated.

Details: Liquid, Vibrating tube method

CCCCCC(=O)OCC(COC(=O)CCCCC)(COC(=O)CCCCC)COC(=O)CCCCC [pentaerythritol tetrahexanoate]
Details	mass density
283.16 K, 9726 kPa	1009.7 kg/m3
283.16 K, 9740.5 kPa	1009.7 kg/m3
283.16 K, 11666 kPa	1010.8 kg/m3
283.16 K, 11699 kPa	1010.9 kg/m3
283.16 K, 11719 kPa	1011 kg/m3
283.16 K, 11736 kPa	1010.9 kg/m3
283.16 K, 11882 kPa	1011 kg/m3
283.16 K, 15896 kPa	1013.2 kg/m3
283.16 K, 15917 kPa	1013.2 kg/m3
283.16 K, 15934 kPa	1013.3 kg/m3
283.16 K, 15952 kPa	1013.2 kg/m3
283.16 K, 15973 kPa	1013.2 kg/m3
283.16 K, 15990 kPa	1013.1 kg/m3
283.16 K, 16007 kPa	1013.1 kg/m3
283.16 K, 16028 kPa	1013.2 kg/m3
283.16 K, 16047 kPa	1013.4 kg/m3
283.16 K, 17073 kPa	1013.9 kg/m3
283.16 K, 17091 kPa	1013.8 kg/m3
283.16 K, 17101 kPa	1013.8 kg/m3
283.16 K, 17102 kPa	1013.8 kg/m3
283.16 K, 17103 kPa	1013.9 kg/m3
283.16 K, 21750 kPa	1016.3 kg/m3
283.16 K, 24165 kPa	1017.6 kg/m3
283.16 K, 24256 kPa	1017.8 kg/m3
283.16 K, 24293 kPa	1017.8 kg/m3
283.16 K, 24310 kPa	1017.7 kg/m3
283.16 K, 24348 kPa	1017.7 kg/m3
283.16 K, 26923 kPa	1019 kg/m3
283.16 K, 26937 kPa	1019 kg/m3
303.14 K, 14075 kPa	997.2 kg/m3
303.14 K, 21030 kPa	1001.2 kg/m3
303.14 K, 32666 kPa	1007.6 kg/m3
303.14 K, 32689 kPa	1007.7 kg/m3
303.14 K, 32708 kPa	1007.8 kg/m3
303.14 K, 32727 kPa	1007.7 kg/m3
303.14 K, 32750 kPa	1007.8 kg/m3
303.14 K, 32770 kPa	1007.7 kg/m3
303.14 K, 32789 kPa	1007.7 kg/m3
303.14 K, 34002 kPa	1008.2 kg/m3
303.14 K, 34004 kPa	1008.4 kg/m3
303.14 K, 34018 kPa	1008.3 kg/m3
303.14 K, 34022 kPa	1008.4 kg/m3
303.14 K, 34024 kPa	1008.4 kg/m3
303.14 K, 34030 kPa	1008.3 kg/m3
303.14 K, 34038 kPa	1008.4 kg/m3
303.14 K, 34043 kPa	1008.4 kg/m3
303.14 K, 34049 kPa	1008.2 kg/m3
303.14 K, 34053 kPa	1008.4 kg/m3
303.14 K, 34057 kPa	1008.5 kg/m3
303.14 K, 34060 kPa	1008.3 kg/m3
303.14 K, 34063 kPa	1008.4 kg/m3
303.14 K, 34084 kPa	1008.5 kg/m3
303.14 K, 34101 kPa	1008.4 kg/m3
303.14 K, 34115 kPa	1008.4 kg/m3
303.14 K, 34131 kPa	1008.4 kg/m3
303.14 K, 34147 kPa	1008.4 kg/m3
303.14 K, 34159 kPa	1008.4 kg/m3
303.14 K, 34165 kPa	1008.6 kg/m3
303.14 K, 34169 kPa	1008.5 kg/m3
303.14 K, 34174 kPa	1008.4 kg/m3
303.15 K, 191.8 kPa	988.6 kg/m3
303.15 K, 192.2 kPa	988.4 kg/m3
303.15 K, 192.4 kPa	988.5 kg/m3
303.15 K, 192.5 kPa	988.3 kg/m3
303.15 K, 192.7 kPa	988.4 kg/m3
303.15 K, 193.2 kPa	988.5 kg/m3
303.15 K, 193.4 kPa	988.5 kg/m3 and 988.4 kg/m3
303.15 K, 193.6 kPa	988.6 kg/m3
303.15 K, 193.9 kPa	988.5 kg/m3
303.15 K, 194.8 kPa	988.4 kg/m3 and 988.5 kg/m3
303.15 K, 195 kPa	988.5 kg/m3
303.15 K, 195.1 kPa	988.5 kg/m3
303.15 K, 195.8 kPa	988.6 kg/m3 and 988.4 kg/m3
303.15 K, 196 kPa	988.5 kg/m3
303.15 K, 196.2 kPa	988.3 kg/m3
303.15 K, 196.3 kPa	988.5 kg/m3
303.15 K, 196.5 kPa	988.5 kg/m3 and 988.6 kg/m3
303.15 K, 198.2 kPa	988.4 kg/m3 and 988.5 kg/m3
303.15 K, 198.4 kPa	988.4 kg/m3
303.15 K, 198.8 kPa	988.4 kg/m3 and 988.5 kg/m3
303.15 K, 198.9 kPa	988.5 kg/m3
303.15 K, 199.1 kPa	988.5 kg/m3
303.15 K, 199.3 kPa	988.4 kg/m3
303.15 K, 199.6 kPa	988.5 kg/m3 and 988.6 kg/m3
303.15 K, 200.9 kPa	988.4 kg/m3
303.15 K, 202.8 kPa	988.4 kg/m3
303.15 K, 203.1 kPa	988.5 kg/m3
303.15 K, 203.3 kPa	988.5 kg/m3
303.15 K, 203.5 kPa	988.4 kg/m3
303.15 K, 203.8 kPa	988.4 kg/m3
303.15 K, 204 kPa	988.5 kg/m3
303.15 K, 204.5 kPa	988.4 kg/m3
303.15 K, 204.7 kPa	988.4 kg/m3
303.15 K, 204.9 kPa	988.5 kg/m3 and 988.6 kg/m3
303.15 K, 205 kPa	988.5 kg/m3
303.15 K, 205.4 kPa	988.5 kg/m3 and 988.4 kg/m3
303.15 K, 205.7 kPa	988.5 kg/m3 and 988.6 kg/m3
303.15 K, 206.1 kPa	988.5 kg/m3
303.15 K, 206.2 kPa	988.5 kg/m3 and 988.4 kg/m3
303.15 K, 206.4 kPa	988.5 kg/m3
303.15 K, 206.8 kPa	988.4 kg/m3
303.15 K, 206.9 kPa	988.3 kg/m3
303.15 K, 208.3 kPa	988.4 kg/m3
303.15 K, 208.7 kPa	988.4 kg/m3
303.15 K, 210.1 kPa	988.5 kg/m3 and 988.4 kg/m3
303.15 K, 210.6 kPa	988.5 kg/m3
303.15 K, 210.9 kPa	988.3 kg/m3 and 988.4 kg/m3
303.15 K, 211.1 kPa	988.4 kg/m3 and 988.5 kg/m3 and 988.3 kg/m3
303.15 K, 211.8 kPa	988.5 kg/m3 and 988.6 kg/m3
303.15 K, 212 kPa	988.5 kg/m3
303.15 K, 212.3 kPa	988.4 kg/m3
303.15 K, 213.2 kPa	988.4 kg/m3
303.15 K, 213.6 kPa	988.5 kg/m3
303.15 K, 213.7 kPa	988.6 kg/m3
303.15 K, 214.1 kPa	988.5 kg/m3
303.15 K, 214.2 kPa	988.5 kg/m3
303.15 K, 214.4 kPa	988.5 kg/m3
303.15 K, 214.6 kPa	988.6 kg/m3
303.15 K, 214.8 kPa	988.5 kg/m3
303.15 K, 215.1 kPa	988.4 kg/m3
303.15 K, 215.5 kPa	988.5 kg/m3
303.15 K, 215.6 kPa	988.4 kg/m3 and 988.5 kg/m3
303.15 K, 216 kPa	988.5 kg/m3
303.15 K, 216.2 kPa	988.5 kg/m3
303.15 K, 216.5 kPa	988.5 kg/m3
303.15 K, 216.7 kPa	988.6 kg/m3
303.15 K, 216.9 kPa	988.5 kg/m3
303.15 K, 217 kPa	988.5 kg/m3
303.15 K, 217.2 kPa	988.4 kg/m3
303.15 K, 217.7 kPa	988.4 kg/m3
303.15 K, 218.1 kPa	988.5 kg/m3
303.15 K, 218.2 kPa	988.5 kg/m3
303.15 K, 218.6 kPa	988.5 kg/m3
303.15 K, 219.1 kPa	988.5 kg/m3
303.15 K, 219.4 kPa	988.6 kg/m3
303.15 K, 219.6 kPa	988.5 kg/m3
303.15 K, 219.8 kPa	988.4 kg/m3
303.15 K, 220 kPa	988.4 kg/m3
303.15 K, 220.2 kPa	988.4 kg/m3
303.15 K, 220.3 kPa	988.4 kg/m3
303.15 K, 224.1 kPa	988.4 kg/m3
303.15 K, 224.8 kPa	988.5 kg/m3
303.15 K, 225.2 kPa	988.4 kg/m3
303.15 K, 225.4 kPa	988.5 kg/m3
303.15 K, 228.3 kPa	988.6 kg/m3
